The record followed here is EPA's ToxValDB 9.5.

A word on the LOAEL: it is the lowest tested level that showed an adverse finding. The NOAEL is the highest tested level that showed no adverse finding.

For one data set, the system named is Mus musculus. The settings on record: oral, C57BL/6; for LOAEL / NOAEL: subchronic, duration: 30 days; for LOAEL / NOAEL / LEL / NEL: gavage; for LEL / NEL: short-term, duration: 28 days.
The subject of data set [1] is Rattus norvegicus. The settings on record: oral.
For data set [2], the system named is Rattus norvegicus. The settings on record: oral, gavage, M/F.
A further data set concerns Canidae. The settings on record: chronic; duration: 1 years; oral; diet; M/F; Dog Other; tremors.
The subject of data set [3] is Rattus norvegicus.
Data set [4] deals with Rattus norvegicus. The conditions noted are these: for NOAEL: M/F.
For data set [5], the system named is Rattus norvegicus. The settings on record: M/F.
[6] abbreviates: M, Cardiovascular: Heart: Heart Weight, Relative + Hepatic: Liver: Liver Weight, Relative + Immune: Multi-Organ: Immunoglobulin M (IgM), Serum….
Setting [7] is: M, Hepatic: Liver: Liver Weight, Relative.
Where [8] appears, read: Hershberger, duration: 7 days, gavage, Sprague-Dawley, active + Antiandrogenic + anti-androgenic + no AST effects in pairwise comparison but increasing trend for LABC and DL prostate / ….
[9] abbreviates: F, Liver: Acyl-CoA Oxidase Activity, Liver + Multi-organ: IgM Serum Titer + Spleen: Spleen Weight, Absolute + Spleen: Spleen Weight, Relative.
Where [10] appears, read: F, Liver: Liver Weight, Absolute + Liver: Liver Weight, Relative.
Where [11] appears, read: M, Liver: Acyl-CoA Oxidase Activity, Liver + Liver: Liver Weight, Absolute + Liver: Liver Weight, Relative.
[12] abbreviates: M, Spleen: CD4-/CD8- Cell Count + Spleen: CD4+/CD8+ Cell Count + Spleen: CD8+ Cell Count.
[13] abbreviates: reproduction developmental, inhalation, increased liver weight in p1 males.
Where [14] appears, read: chronic, duration: 2 years, oral, diet, reduced body weight.

In the case of `O=C(O)C(F)(F)C(F)(F)C(F)(F)OC(F)(F)F` [Perfluoro(4-methoxybutanoic acid)], the lowest-observed-adverse-effect level (LOAEL) is 50 mg/kg-day in the data set with Mus musculus (F, Cardiovascular: Heart: Heart Weight, Relative + Hepatic: Liver: Liver Weight, Relative + Immune: Multi-Organ: Immunoglobulin M (IgM), Serum…); 50 mg/kg-day in the data set on Mus musculus (setting [6]); 50 mg/kg-day in the data set with Mus musculus (setting [7]). Further, the NOAEL with Mus musculus (setting [6]) amounted to 5 mg/kg-day; in the data set on Mus musculus (M, Cardiovascular: Heart: Heart Weight, Relative + Immune: Multi-Organ: Immunoglobulin M (IgM), Serum + Immune: Multi-Organ: Natural Killer (NK…), 50 mg/kg-day; in the data set with Mus musculus (setting [7]), 5 mg/kg-day.

`Cc1c(COC(=O)[C@@H]2[C@H](/C=C(\Cl)C(F)(F)F)C2(C)C)cccc1-c1ccccc1` [Bifenthrin]: in the data set on Rattus norvegicus [1] (setting [8]), the LOEL stood at 13.5 mg/kg-day. Moreover, the NOEL in the data set with Rattus norvegicus [1] (setting [8]) was 10 mg/kg-day; in the data set with Rattus norvegicus [1] (Hershberger, duration: 10 days, gavage, Sprague-Dawley, inactive + Negative + Negative + neither + negative) it was 10 mg/kg-day; in the data set on Rattus norvegicus [2] (short-term, duration: 28 days, Clinical Observation: Tremor) it was 50 ppm; in the data set on Canidae it was 1.5 mg/kg-day. The LEL with Rattus norvegicus [1] (uterotrophic, duration: 3 days, Active) was determined as 13.2 mg/kg-day; in the data set on Canidae, 3 mg/kg-day.

Take `CCOP(=S)(OCC)SCCSCC` [Disulfoton]: the LOAEL in the data set with Rattus norvegicus [3] (chronic, duration: 2 years, oral, diet, Blood: Cholinesterase inhibition + Eye: Degeneration) was 0.04 mg/kg-day; in the data set with Rattus norvegicus [4] (chronic, duration: 2 years, oral, diet, F, Fischer 344, neurological), 0.06 mg/kg-day. The NOAEL is 0.009 mg/kg-day in the data set on Rattus norvegicus [4] (developmental, duration: 364 days, oral, diet, Sprague-Dawley, neurological, developmental); 0.1 mg/m3 in the data set with Rattus norvegicus [4] (short-term, duration: 3 weeks, inhalation, Wistar TNO/W 74 albino, neurological); 0.1 mg/m3 in the data set with Rattus norvegicus [4] (short-term, duration: 3 weeks, inhalation, chamber, Wistar TNO/W 74 albino, neurological). The LEL in the data set on Rattus norvegicus [5] (chronic, duration: 2 years, oral, diet, cholinesterase inhibition, optic nerve degeneration) worked out at 0.04 mg/kg-day.

As for `O=C1C[C@@H]2OCC=C3CN4CC[C@]56c7ccccc7N1[C@H]5[C@H]2[C@H]3C[C@H]46` [Strychnine], the lowest observed adverse effect level (LOAEL) is 2.5 mg/kg-day with Rattus norvegicus [3] (short-term, duration: 28 days, oral, gavage, Unspecified: Histopathology + Unspecified: Toxicity) and 2.5 mg/kg-day with Rattus norvegicus [5] (subchronic, oral, toxicity/histopathology).

As for `Brc1ccc(Oc2ccc(Br)cc2Br)c(Br)c1` [2,2',4,4'-Tetrabromodiphenyl ether], the LOEL in the data set on Mus musculus (developmental, M/F, generation: F1, F1: Morris water maze (swim speed, first trial) + F1: Morris water maze (swim speed, last trial) + F1: Morris water maze (swim speed, middle…) stood at 1 mg/kg-day; with Mus musculus (reproduction developmental, F, generation: P0, P0: Morris water maze (latency, first trial)) it was 0.03 mg/kg-day. This compound also registered an LOAEL in the data set on Rattus norvegicus [4] (subchronic, duration: 8 weeks, oral, gavage, M, Sprague-Dawley, reproductive) of 0.001 mg/kg-day.

For the compound `O=C(O)C(F)(OC(F)(F)C(F)(F)C(F)(F)F)C(F)(F)F` (stereo not drawn) [Perfluoro-2-methyl-3-oxahexanoic acid], the LEL in the data set with Mus musculus (setting [9]) worked out at 100 mg/kg-day; in the data set on Mus musculus (setting [10]), 10 mg/kg-day; in the data set on Mus musculus (setting [11]) it was 10 mg/kg-day; in the data set with Mus musculus (setting [12]) it was 100 mg/kg-day. The NEL is 10 mg/kg-day in the data set with Mus musculus (setting [9]); 1 mg/kg-day in the data set with Mus musculus (setting [10]); 100 mg/kg-day in the data set with Mus musculus (F, Spleen: B Cell Count + Spleen: CD4-/CD8- Cell Count + Spleen: CD4+ Cell Count + Spleen: CD4+/CD8+ Cell Count + Spleen: CD8+ Cell Count + …); 1 mg/kg-day with Mus musculus (setting [11]); 100 mg/kg-day with Mus musculus (M, Multi-organ: IgM Serum Titer + Spleen: B Cell Count + Spleen: CD4+ Cell Count + Spleen: Spleen Weight, Absolute + Spleen: Spleen Weight, …); 10 mg/kg-day in the data set on Mus musculus (setting [12]).

On to `Oc1ccccc1` [Phenol], for which the NOAEL with Rattus norvegicus [3] (developmental, oral, gavage, Fetus: Decreased weight) was found to be 60 mg/kg-day.

Consider `Clc1ccc(Cl)cc1` [1,4-Dichlorobenzene], for which, in the data set on Rattus norvegicus [3] (chronic, inhalation, intermittent, Liver: Increased weight in male parents), the NOAEL turned out to be 75 mg/m3. Further, in the data set on Rattus norvegicus [2] (subchronic, duration: 13 weeks, Fischer 344, Deaths + Clinical Observation: Tremors Poor motor response Ocular discharge + Body Weight Changes: decrease + Urinalysis: Coproporphyrin …), the NOEL was less than 300 mg/kg-day. Besides, in the data set on Rattus norvegicus [5] (setting [13]), the LOAEL is 902 mg/m3 and the NOAEL was 301 mg/m3.

For the compound `CC(C)Nc1nc(Cl)nc(NC(C)C)n1` [2,4-Bis(isopropylamino)-6-chloro-1,3,5-triazine], the NOEL in the data set on Rattus norvegicus [3] (chronic, duration: 2 years, oral, diet, Whole body: Decreased weight gain) turned out to be 5 mg/kg-day. Further, in the data set with Rattus norvegicus [5] (setting [14]), the LEL stood at 50 mg/kg-day and the NOEL came out at 5 mg/kg-day.

`CCOP(=S)(OCC)SCSCC` [Phorate] gave an NOAEL in the data set on Rattus norvegicus [3] (subchronic, duration: 13 weeks, oral, diet, Cholinesterase: Inhibition) of 0.033 mg/kg-day.
